Measured values from US6306853A, “1,4-Dihydropyridine derivatives” (Nikken Chemicals Co., Ltd., priority 1998, dated 2001).

Tests used:
KB/VJ 300 cells [1] = test: Degree of resistance to ADM (ratio of ADM LD50 concentrations) in multi-drug resistant KB/VJ 300 cells on combined administration of doxorubicin and test compound; type: cell-based, human; details: VJ-300 (resistant) cells; ADM + test compound 1 μg/ml; relative to ADM alone in KB = 1
Description: In Vitro Test of Action Suppressing Proliferation of Cancer Cells combined administration of Doxorubicin
(§1) Human rhinopharynx cancer derived KB cells (i.e., sensitive cells) and their multi-drug resistant clone KB/VJ 300 cells (i.e., resistant cells) were used as the test cells. As the incubation solutions, use was made of 10% fetal calf serum (Flow Laboratories) and Eagle MEM medium (Nissui Seiyaku) containing 0.292 mg/ml of L-glutamine (Flow Laboratories). The tests of the action for overcoming resistance to anti-cancer drugs or action for increasing the effect of the anti-cancer drug with the combined administration of the anti-cancer drug doxorubicin (i.e., adriamycin, ADM) and the test compound were performed as follows:
The test cells were suspended in incubation solutions and adjusted to a cell density of about 200 cells/ml. The cell suspensions were injected in 2 ml amounts into petri dishes and were incubated in a CO2 gas incubator (5% CO2, 95% air) at 37° C. for 24 hours. Then, 5-10 μl of a predetermined concentration of the aqueous ADM solution and a predetermined concentration of a DMSO solution of the test compound were added, then the incubation was continued for a further 6 days. After the end of the incubation, the result was immobilized with methanol, Tripan blue stained and measured for the number of colonies per dish. […]

[2] = tested on: VCR resistant murine leukemia (P388/VCR) cells; test: In vivo overcoming of resistance in VCR resistant murine leukemia (P388/VCR) bearing mice, etoposide with compound 20 mg/kg; set-up: species or system CDF1 female mice; details: VP-16 3 mg/kg + compound 20 mg/kg, i.v. once per day for 5 days; for Rate of prolongation of life T/C: vs control
Description: In Vivo Test of Action Suppressing Proliferation of Cancer Cells by Combined Administration of Anti-cancer Drug Etoposide
Effect of Overcoming Resistance to an Anti-cancer Drug for VCR Resistant Murine Leukemia Cell Bearing Mice
1.2×10^5 VCR resistant murine leukemia (P388/VCR) cells were transplanted intravenously into groups of 5-6 CDF1 female mice, then the compound of the present invention (20 mg/kg) and Etoposide (VP-16) (3 mg/kg) were administered intravenously once per day for 5 days, after dissolving them in a physiological salt solution containing a small amount of hydrochloric acid. The observation was started from the next day. The number of survival days were found and the life prolonging rate (T/C) with respect to the controls was found. The effect in overcoming resistance to an anti-cancer drug (T/V) was found by the following formula.
Effect of overcoming resistance to the anti-cancer drug (T/V) %
=[(Rate of prolongation of life using VP-16 and the present compound (T/C))/(Rate of prolongation of life using VP-16 alone (T/C))]×100

[3] = tested on: thoracic aorta of the rat; test: Action easing KCl contraction in rat arteries; details: rat thoracic aorta ring, 50 mM KCl, compound 10^-6 M; read-out: Inhibitory rate of hyperpotassium contraction at 10^-6 M
Description: Action Easing KCl Contraction in Rat Arteries
The specimen was stabilized for approximately 60 minutes, then a potassium chloride solution was added to the Magnus tube to give a final concentration of 50 mM. The positive control compound or the compound of the present invention was cumulatively added to become 1×10^-6 M when the contraction reaction occurring at that time reached equilibrium. The contraction force was recorded by an FD-pickup (Nihon Koden) via a polygraph (Nihon Koden).

[4] = Acute toxicity test in mice, intraperitoneal; details: mouse, in vivo, ip, 7 days observation
Description: Animals used: ddY male mice (SLC Japan), 4-5 weeks old, three to five mice per group.
Test method: The compound of the present invention was suspended in 0.5% sodium carboxymethylcellulose (CMC-Na) containing 0.1% Tween 80. It was administered to the mice intraperitoneally in amounts of 250, 500 or 1000 mg/kg in groups of three to five mice. The survival of the animals was observed up until 7 days after administration and LD50 value was calculated according to a Probit method.

KB/VJ 300 cells [5] = test: Degree of resistance to VCR in multi-drug resistant VJ-300 cells on combined administration of vincristine and test compound; type: cell-based, human; details: relative to KB = 1
Description: as §1, with “action for increasing the effect of the anti-cancer drug with the combined administration of the anti-cancer drug doxorubicin (i.e., adriamycin, ADM) and the test compound were performed as follows:” left out
The test cells were suspended in incubation solutions and adjusted to a cell density of about 200 cells/ml. The cell suspensions were injected in 2 ml amounts into petri dishes and were incubated in a CO2 gas incubator (5% CO2, 95% air) at 37° C. for 24 hours. […] After the end of the incubation, the result was immobilized with methanol, Tripan blue stained and measured for the number of colonies per dish. The results were used to prepare a volume-reaction curve. From this, the ADM concentration of the 50% cell survival rate (LD50 ) was calculated and the effect for overcoming resistance to anti-cancer drugs and the effect for increasing the effect of anti-cancer drugs were judged. The results are shown in Table 12 to Table 14 using the concentration of LD50 of ADM in the ADM alone group when KB cells were used as the resistance degree 1 and calculating the resistances of the following LD50 concentrations as relative ratios. […]

multidrug resistance = details: literature statement in words; cited from earlier work

Molecule | Average days of survival [2] [days] | Rate of prolongation of life T/C [2] [%] | inhibition at 1 µM [3] [%] | also measured
6-Methyl-2-[4-(2-methylimidazo[4,5-b]pyridin-1-yl)phenyl]-4-(2-phenylethyl)-1,4-dihydropyridin-3,5-dicarboxylate 3-ethylester 5-[3-(3-pyridyl)-2-propynyl]ester [Compound 51] |  |  |  | Degree of resistance for ADM, VJ-300 (KB/VJ 300 cells [1]): 1.43
6-Methyl-2-[4-(2-methylimidazo[4,5-b]pyridin-1-yl)phenyl]-4-pentyl-1,4-dihydropyridin-3,5-dicarboxylate 3-ethylester 5-[3-(3-pyridyl)2-propynyl]ester [Compound 52] |  |  |  | Degree of resistance for ADM, VJ-300 (KB/VJ 300 cells [1]): 1.60
CCOC(=O)C1=C(c2ccc(-n3c(C)nc4cnccc43)cc2)NC(C)=C(C(=O)OCC#Cc2cccnc2)C1C (stereo not shown) [Compound 1, 4,6-dimethyl-2-[4-(2-methylimidazo[4,5-c]pyridin-1-yl)phenyl]-1,4-dihydropyridin-3,5-dicarboxylic acid 3-ethylester 5-[3-(3-pyridyl)-2-propynyl]ester] | 13.6 | 148 | 0 | 
CCOC(=O)C1=C(c2ccc(-n3c(C)nc4cnccc43)cc2)NC(C)=C(C(=O)OCC#Cc2cccnc2)C1Cc1ccccc1 (stereo not shown) [Compound 6, 4-Benzyl-6-methyl-2-[4-(2-methylimidazo[4,5-c]pyridin-1-yl)phenyl]-1,4-dihydropyridin-3,5-dicarboxylate 3-ethylester 5-[3-(3-pyridyl)-2-propynyl]ester] | 16.0 | 174 | 7.5 | 
CCOC(=O)C1=C(c2ccc(-n3c(C)nc4cnccc43)cc2)NC(C)=C(C(=O)OCC#Cc2cccnc2)C1CCc1ccccc1 (stereo not shown) [Compound 9, 6-Methyl-2-[4-(2-methylimidazo[4,5-c]pyridin-1-yl)phenyl]-4-(2-phenylethyl)-1,4-dihydropyridin-3,5-dicarboxylate 3-ethylester 5-[3-(3-pyridyl)-2-propynyl]ester] | 15.0 | 163 |  | LD50 at 168 h [4]: > 1000 mg/kg
CCOC(=O)C1=C(c2ccc(-n3c(C)nc4cnccc43)cc2)NC(C)=C(C(=O)OCC#Cc2cccnc2)C1/C=C/c1ccccc1OC (stereo not shown) [Compound 14, 4-[(E)-2-(2-Methoxyphenyl)ethenyl]-6-methyl-2-[4-(2-methylimidazo[4,5-c]pyridin-1-yl)phenyl]-1,4-dihydropyridin-3,5-dicarboxylate 3-ethylester 5-[3-(3-pyridyl)-2-propynyl]ester] | 15.7 | 154 | 0 | 
CCOC(=O)C1=C(c2ccc(-n3c(C)nc4cnccc43)cc2)NC(C)=C(C(=O)OCC#Cc2cccnc2)C1/C=C/c1ccco1 (stereo not shown) [Compound 16, 4-[(E)-2-(2-Furyl)ethenyl]-6-methyl-2-[4-(2-methylimidazo[4,5c]pyridin-1-yl)phenyl]1,4-dihdropyridin-3,5-dicarboxylate 3-ethylester 5-[3-(3-pyridyl)-2-propynyl]ester] | 15.0 | 147 | 0 | 
CCOC(=O)C1=C(c2ccc(-n3c(C)nc4cnccc43)cc2)NC(C)=C(C(=O)OCC#Cc2cccnc2)C1CCc1ccsc1 (stereo not shown) [Compound 17, 6-Methyl-2-[4-(2-methylimidazo[4,5-c]pyridin-1-yl)phenyl]-4-[2-(3-thienyl)ethyl]-1,4-dihydropyridin-3,5-dicarboxylate 3-ethylester 5-[3-(3-pyridyl)2-propynyl]ester] | 13.4 | 146 | 0 | 
CCCCCC1C(C(=O)OC(C)C#Cc2cccnc2)=C(C)NC(c2ccc(-n3c(C)nc4cnccc43)cc2)=C1C(=O)OCC (stereo not shown) [Compound 22, 6-Methyl-2-[4-(2-methylimidazo[4,5-c]pyridin-1-yl)phenyl]-4-pentyl-1,4-dihydropyridin-3,5-dicarboxylate 3-ethylester 5-[1-methyl-3-(3-pyridyl)-2-propynyl]ester] | 14.6 | 159 | 0 | LD50 at 168 h [4]: > 1000 mg/kg
CCOC(=O)C1=C(c2ccc(-n3ccnc3)cc2)NC(C)=C(C(=O)OCC#Cc2cccnc2)C1/C=C/c1ccccc1 (stereo not shown) [Compound 24, 2-[4-(1-Imidazolyl)phenyl]-6-methyl-4-[(E)-2-phenylethenyl]-1,4-dihydropyridin-3,5-dicarboxylate 3-ethylester 5-[3-(3-pyridyl)-2-propynyl]ester] |  |  |  | LD50 at 168 h [4]: > 1000 mg/kg
CC[C@]1(O)C[C@H]2CN(CCc3c([nH]c4ccccc34)[C@@](C(=O)OC)(c3cc4c(cc3OC)N(C=O)[C@H]3[C@@](O)(C(=O)OC)[C@H](OC(C)=O)[C@]5(CC)C=CCN6CC[C@]43[C@@H]65)C2)C1 [VCR, vincristine] |  |  |  | Degree of resistance for VCR, VJ-300 (VCR alone, control) (KB/VJ 300 cells [5]): 903-970
COC(=O)C1=C(C)NC(C)=C(C(=O)OCCN(C)Cc2ccccc2)C1c1cccc([N+](=O)[O-])c1 (stereo not shown) [nicardipine, reference compound] |  |  | 100 | effect of combined administration with an anti-cancer drug on multidrug resistance (multidrug resistance): effective
